Measurements published in US7718406B2, “Substrates for TAFI (A)” (DSM IP Assets B.V., priority 2002, dated 2010).

How the values were obtained:
TAFIa = biological target: T1, TAFIa (Homo sapiens, UniProt Q96IY4); assay: Splitting of thiaarginine and thialysine substrates by TAFIa (Ellman's reagent, absorption at 405-412 nm); assay type: biochemical; settings: substrate final concentration 174 μM; TAFIa final concentration 17 μg/ml; RT, 10 min; pH 7.4
T1 construct: purchased Enzyme Research Laboratory
T1 sequence (Q96IY4 115-423): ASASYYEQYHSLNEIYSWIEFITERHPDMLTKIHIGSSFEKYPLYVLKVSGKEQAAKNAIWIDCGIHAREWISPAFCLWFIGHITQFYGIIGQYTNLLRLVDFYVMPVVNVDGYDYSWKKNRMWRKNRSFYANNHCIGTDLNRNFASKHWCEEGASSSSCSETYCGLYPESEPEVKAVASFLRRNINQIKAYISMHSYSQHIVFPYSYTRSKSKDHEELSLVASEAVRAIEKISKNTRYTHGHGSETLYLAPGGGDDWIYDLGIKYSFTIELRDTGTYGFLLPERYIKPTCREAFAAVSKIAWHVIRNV
Description: Principle: TAFIa is determined as shown in Scheme 1. In a first step, the substrate is hydrolyzed by TAFIa in such a way that a thioamino acid (thiaarginine or thialysine) is released. These instable intermediates are rapidly decomposed into 2-mercaptoethylguanidine or 3-mercaptopropylamine, respectively. These mercapto compounds react with Ellman's reagent (5,5′-dithio-bis-(2-nitrobenzoic acid)), thereby releasing the strongly yellow 3-carboxy-4-nitrothiophenol that can be measured using a spectrophotometer at 405-412 nm. The free thiol content measured is directly proportional to the quantity of substrate hydrolyzed by TAFIa and thereby allows a quantitative analysis of the enzyme activity.
Enzyme assay: The enzyme activity is measured at room temperature by using a 10 mM substrate stock solution in DMSO. TAFI of human origin can be obtained in a stock solution of 360 μg/ml from Enzyme Research Laboratory or over blood plasma. Activation of TAFI to TAFIa occurred with thrombin (2.7 U/ml), the activation of which was produced with 30 μg of thrombomodulin. Excessive thrombin activity was eliminated by adding the synthetic inhibitor NAPAP. The measurement was performed on microtiter plates.
The absorption increase at 405-412 nm was recorded for 10 minutes.
in buffer (20 mM HEPES, 5 mM CaCl2, 0.01% Tween 80; pH 7.4) • incubate for 5 min at 25° C. Measurement:
(§1) • measure for 10 min at RT Results: • Splitting of thiaarginine and thialysine substrates (final concentration 174 μM) by TAFIa (final concentration 17 μg/ml) • in brackets the value for carboxypeptidase B • Substances of comparison A and B from Bull. Korean. Chem. Soc. 1998, 19(2), 189-193 • ΔE=Extinction variation at 405 nm

carboxypeptidase B = biological target: T2, carboxypeptidase B (Homo sapiens, UniProt P15086); assay: Splitting of thiaarginine and thialysine substrates by carboxypeptidase B; assay type: biochemical; settings: substrate final concentration 174 μM
T2 sequence (P15086 111-417): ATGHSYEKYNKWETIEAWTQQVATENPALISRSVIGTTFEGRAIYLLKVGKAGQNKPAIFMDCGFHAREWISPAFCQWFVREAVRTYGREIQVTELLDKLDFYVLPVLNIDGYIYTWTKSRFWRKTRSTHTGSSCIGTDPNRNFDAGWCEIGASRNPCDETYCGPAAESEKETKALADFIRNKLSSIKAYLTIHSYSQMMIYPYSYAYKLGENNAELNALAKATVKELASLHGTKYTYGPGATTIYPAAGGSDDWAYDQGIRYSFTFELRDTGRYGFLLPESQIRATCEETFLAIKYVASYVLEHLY
Description: [drawing 2] have been described as substrates for carboxypeptidase B (Bull. Korean. Chem. Soc. 1998, 19(2), 189-193). […] Detection of CPB by means of compound A is carried out according to the following Scheme 1.
as §1

Compound | ΔE/min (extinction variation at 405 nm), splitting by TAFIa (TAFIa) | ΔE/min (extinction variation at 405 nm), value in brackets for carboxypeptidase B (carboxypeptidase B)
Bz-V-G(α-SPrA)-OH × TFA [No. 4336] | 0.053 ΔE/min | –
Boc-K(Z)-G(GUS)-OH × TFA [No. 4275] | 0.041 ΔE/min | (0.028) ΔE/min
NCCCSC(NC(=O)[C@H](CCCCNC(=O)OCc1ccccc1)NC(=O)c1ccccc1)C(=O)O.O=C(O)C(F)(F)F (stereo partly drawn) [No. 4339, benzoyl-(L)-lysyl-(ε-benzyloxycarbonyl)-α-(D,L)-(3-aminopropylthio)-glycine trifluoracetic acid salt] | 0.055 ΔE/min | –
Boc-K(Z)-G(α-SPrA)-OH × TFA [No. 4341] | 0.054 ΔE/min | –
Z-A-K(Boc)-G(GUS)-OH × HCl [No. 4302] | 0.042 ΔE/min | (0.059) ΔE/min
Cl.N=C(N)NCCSC(NC(=O)[C@H](CCCCNC(=O)OCc1ccccc1)NC(=O)c1ccccc1)C(=O)O (stereo partly drawn) [No. 4269, benzoyl-(L)-lysyl-(ε-benzyloxycarbonyl)-α-(D,L)-(2-guanidinoethylthio)-glycine hydrochloride salt] | 0.108 ΔE/min | (0.018) ΔE/min
Bz-P-K(Boc)-G(GUS)-OH × TFA [No. 4300] | 0.012 ΔE/min | (0.072) ΔE/min
Boc-K(Tos)-G(GUS)-OH × HCl [No. 4273] | 0.014 ΔE/min | (0.048) ΔE/min
Boc-F-K(Boc)-G(GUS)-OH × HCl [No. 4298] | 0.043 ΔE/min | (0.034) ΔE/min
Bz-V-G(GUS)-OH × TFA [No. 4334] | 0.034 ΔE/min | –
